Experiments:
[1] = Ratio of drug uptake in pons to cerebellum in anesthetized cynomolgus monkey after 95 mins postinjection; format: ADME, organism-based, Macaca fascicularis; conditions: in vivo
[2] = Ratio of drug uptake in pons to cerebellum in anesthetized cynomolgus monkey after 105 mins postinjection; format: ADME, organism-based, Macaca fascicularis; conditions: in vivo, 1.75 h
[3] = Ratio of drug uptake in pons to cerebellum in anesthetized cynomolgus monkey after 145 mins postinjection; format: ADME, organism-based, Macaca fascicularis; conditions: in vivo
[4] = Ratio of drug uptake in pons to cerebellum in anesthetized cynomolgus monkey after 225 mins postinjection; format: ADME, organism-based, Macaca fascicularis; conditions: in vivo, 3.75 h
[5] = Ratio of drug uptake in pons to cerebellum in anesthetized cynomolgus monkey after 195 mins postinjection; format: ADME, organism-based, Macaca fascicularis; conditions: in vivo, 3.25 h
[6] = Ratio of drug uptake in medulla to cerebellum in anesthetized cynomolgus monkey after 85 mins postinjection; format: ADME, organism-based, Macaca fascicularis; conditions: in vivo
[7] = Ratio of drug uptake in medulla to cerebellum in anesthetized cynomolgus monkey after 185 mins postinjection; format: ADME, organism-based, Macaca fascicularis; conditions: in vivo
[8] = Drug uptake in anesthetized cynomolgus monkey brain occipital lobe after 1.5 mins postinjection; format: ADME, organism-based, Macaca fascicularis; conditions: in vivo, 0.025 h
[9] = Drug uptake in anesthetized cynomolgus monkey brain occipital lobe after 4.5 mins postinjection; format: ADME, organism-based, Macaca fascicularis; conditions: in vivo, 0.075 h
[10] = Drug uptake in anesthetized cynomolgus monkey brain occipital lobe after 6.5 mins postinjection; format: ADME, organism-based, Macaca fascicularis; design: unit not given here; conditions: in vivo
[11] = Drug uptake in anesthetized cynomolgus monkey brain occipital lobe after 85 mins postinjection; format: ADME, organism-based, Macaca fascicularis; conditions: in vivo
[12] = Drug uptake in anesthetized cynomolgus monkey brain occipital lobe after 115 mins postinjection; format: ADME, organism-based, Macaca fascicularis; conditions: in vivo
[13] = Drug uptake in anesthetized cynomolgus monkey brain frontal lobe after 6.5 mins postinjection; format: ADME, organism-based, Macaca fascicularis; conditions: in vivo
[14] = Drug uptake in anesthetized cynomolgus monkey brain frontal lobe after 9.5 mins postinjection; format: ADME, organism-based, Macaca fascicularis; conditions: in vivo
[15] = Drug uptake in anesthetized cynomolgus monkey brain frontal lobe after 65 mins postinjection; format: ADME, organism-based, Macaca fascicularis; conditions: in vivo
[16] = Drug uptake in anesthetized cynomolgus monkey brain frontal lobe after 95 mins postinjection; format: ADME, organism-based, Macaca fascicularis; conditions: in vivo
[17] = Drug uptake in anesthetized cynomolgus monkey brain frontal lobe after 115 mins postinjection; format: ADME, organism-based, Macaca fascicularis; conditions: in vivo
[18] = Ratio of drug uptake in midbrain to cerebellum in anesthetized cynomolgus monkey after 185 mins postinjection; format: ADME, organism-based, Macaca fascicularis; conditions: in vivo
[19] = Ratio of drug uptake in occipital lobe to cerebellum in anesthetized cynomolgus monkey after 125 mins postinjection; format: ADME, organism-based, Macaca fascicularis; conditions: in vivo
[20] = system: Putamen; experiment: Drug uptake in anesthetized cynomolgus monkey brain putamen after 145 mins postinjection; format: ADME, organism-based, Macaca fascicularis; conditions: in vivo
[21] = system: Putamen; experiment: Drug uptake in anesthetized cynomolgus monkey brain putamen after 165 mins postinjection; format: ADME, organism-based, Macaca fascicularis; conditions: in vivo, 2.75 h
[22] = system: Putamen; experiment: Drug uptake in anesthetized cynomolgus monkey brain putamen after 215 mins postinjection; format: ADME, organism-based, Macaca fascicularis; conditions: in vivo
[23] = Ratio of drug uptake in occipital lobe to cerebellum in anesthetized cynomolgus monkey after 195 mins postinjection; format: ADME, organism-based, Macaca fascicularis; conditions: in vivo, 3.25 h
[24] = Ratio of drug uptake in frontal lobe to cerebellum in anesthetized cynomolgus monkey after 135 mins postinjection; format: ADME, organism-based, Macaca fascicularis; conditions: in vivo, 2.25 h
[25] = system: Midbrain; experiment: Drug uptake in anesthetized cynomolgus monkey brain midbrain after 135 mins postinjection; format: ADME, organism-based, Macaca fascicularis; conditions: in vivo, 2.25 h
[26] = system: Midbrain; experiment: Drug uptake in anesthetized cynomolgus monkey brain midbrain after 165 mins postinjection; format: ADME, organism-based, Macaca fascicularis; conditions: in vivo, 2.75 h
[27] = system: Midbrain; experiment: Drug uptake in anesthetized cynomolgus monkey brain midbrain after 175 mins postinjection; format: ADME, organism-based, Macaca fascicularis; conditions: in vivo
[28] = system: Midbrain; experiment: Drug uptake in anesthetized cynomolgus monkey brain midbrain after 235 mins postinjection; format: ADME, organism-based, Macaca fascicularis; conditions: in vivo
[29] = system: Pons; experiment: Drug uptake in anesthetized cynomolgus monkey brain pons after 85 mins postinjection; format: ADME, organism-based, Macaca fascicularis; conditions: in vivo
[30] = system: Thalamus; experiment: Drug uptake in anesthetized cynomolgus monkey brain thalamus after 195 mins postinjection; format: ADME, organism-based, Macaca fascicularis; conditions: in vivo, 3.25 h
[31] = system: Thalamus; experiment: Drug uptake in anesthetized cynomolgus monkey brain thalamus after 205 mins postinjection; format: ADME, organism-based, Macaca fascicularis; conditions: in vivo
[32] = Drug uptake in anesthetized cynomolgus monkey brain cerebellum after 195 mins postinjection; format: ADME, organism-based, Macaca fascicularis; conditions: in vivo, 3.25 h
[33] = system: Caudate; experiment: Drug uptake in anesthetized cynomolgus monkey brain caudate after 185 mins postinjection; format: ADME, organism-based, Macaca fascicularis, Caudate nucleus; conditions: in vivo
[34] = Ratio of drug uptake in caudate to cerebellum in anesthetized cynomolgus monkey after 18.5 mins postinjection; format: ADME, organism-based, Macaca fascicularis; conditions: in vivo
[35] = system: Pons; experiment: Drug uptake in anesthetized cynomolgus monkey brain pons after 235 mins postinjection; format: ADME, organism-based, Macaca fascicularis; conditions: in vivo
[36] = system: Medulla; experiment: Drug uptake in anesthetized cynomolgus monkey brain medulla after 18.5 mins postinjection; format: ADME, organism-based, Macaca fascicularis; conditions: in vivo
[37] = system: Medulla; experiment: Drug uptake in anesthetized cynomolgus monkey brain medulla after 27.5 mins postinjection; format: ADME, organism-based, Macaca fascicularis; conditions: in vivo
[38] = Ratio of drug uptake in putamen to cerebellum in anesthetized cynomolgus monkey after 3.5 mins postinjection; format: ADME, organism-based, Macaca fascicularis; conditions: in vivo
[39] = system: Medulla; experiment: Drug uptake in anesthetized cynomolgus monkey brain medulla after 125 mins postinjection; format: ADME, organism-based, Macaca fascicularis; conditions: in vivo
[40] = system: Medulla; experiment: Drug uptake in anesthetized cynomolgus monkey brain medulla after 165 mins postinjection; format: ADME, organism-based, Macaca fascicularis; conditions: in vivo, 2.75 h
[41] = system: Medulla; experiment: Drug uptake in anesthetized cynomolgus monkey brain medulla after 235 mins postinjection; format: ADME, organism-based, Macaca fascicularis; conditions: in vivo
[42] = Drug uptake in anesthetized cynomolgus monkey brain cerebellum after 6.5 mins postinjection; format: ADME, organism-based, Macaca fascicularis; conditions: in vivo
[43] = Drug uptake in anesthetized cynomolgus monkey brain cerebellum after 115 mins postinjection; format: ADME, organism-based, Macaca fascicularis; conditions: in vivo
[44] = Drug uptake in anesthetized cynomolgus monkey brain cerebellum after 215 mins postinjection; format: ADME, organism-based, Macaca fascicularis; conditions: in vivo
[45] = Ratio of drug uptake in putamen to cerebellum in anesthetized cynomolgus monkey after 235 mins postinjection; format: ADME, organism-based, Macaca fascicularis; conditions: in vivo
[46] = Ratio of drug uptake in thalamus to cerebellum in anesthetized cynomolgus monkey after 95 mins postinjection; format: ADME, organism-based, Macaca fascicularis; conditions: in vivo
[47] = system: Caudate; experiment: Drug uptake in anesthetized cynomolgus monkey brain caudate after 12.5 mins postinjection; format: ADME, organism-based, Macaca fascicularis, Caudate nucleus; conditions: in vivo
[48] = system: Caudate; experiment: Drug uptake in anesthetized cynomolgus monkey brain caudate after 165 mins postinjection; format: ADME, organism-based, Macaca fascicularis, Caudate nucleus; conditions: in vivo, 2.75 h
[49] = system: Putamen; experiment: Drug uptake in anesthetized cynomolgus monkey brain putamen after 1.5 mins postinjection; format: ADME, organism-based, Macaca fascicularis; conditions: in vivo, 0.025 h
[50] = Ratio of drug uptake in occipital lobe to cerebellum in anesthetized cynomolgus monkey after 0.5 mins postinjection; format: ADME, organism-based, Macaca fascicularis; conditions: in vivo
[51] = Ratio of drug uptake in occipital lobe to cerebellum in anesthetized cynomolgus monkey after 18.5 mins postinjection; format: ADME, organism-based, Macaca fascicularis; conditions: in vivo
[52] = system: Thalamus; experiment: Drug uptake in anesthetized cynomolgus monkey brain thalamus after 2.5 mins postinjection; format: ADME, organism-based, Macaca fascicularis; design: unit not given here; conditions: in vivo
[53] = system: Thalamus; experiment: Drug uptake in anesthetized cynomolgus monkey brain thalamus after 3.5 mins postinjection; format: ADME, organism-based, Macaca fascicularis; design: unit not given here; conditions: in vivo
[54] = system: Thalamus; experiment: Drug uptake in anesthetized cynomolgus monkey brain thalamus after 15.5 mins postinjection; format: ADME, organism-based, Macaca fascicularis; design: unit not given here; conditions: in vivo
[55] = system: Thalamus; experiment: Drug uptake in anesthetized cynomolgus monkey brain thalamus after 18.5 mins postinjection; format: ADME, organism-based, Macaca fascicularis; design: unit not given here; conditions: in vivo
[56] = system: Thalamus; experiment: Drug uptake in anesthetized cynomolgus monkey brain thalamus after 35 mins postinjection; format: ADME, organism-based, Macaca fascicularis; design: unit not given here; conditions: in vivo
[57] = system: Putamen; experiment: Drug uptake in anesthetized cynomolgus monkey brain putamen after 45 mins postinjection; format: ADME, organism-based, Macaca fascicularis; design: unit not given here; conditions: in vivo, 0.75 h
[58] = system: Putamen; experiment: Drug uptake in anesthetized cynomolgus monkey brain putamen after 65 mins postinjection; format: ADME, organism-based, Macaca fascicularis; design: unit not given here; conditions: in vivo
[59] = system: Thalamus; experiment: Drug uptake in anesthetized cynomolgus monkey brain thalamus after 145 mins postinjection; format: ADME, organism-based, Macaca fascicularis; design: unit not given here; conditions: in vivo
[60] = system: Thalamus; experiment: Drug uptake in anesthetized cynomolgus monkey brain thalamus after 155 mins postinjection; format: ADME, organism-based, Macaca fascicularis; design: unit not given here; conditions: in vivo
[61] = system: Thalamus; experiment: Drug uptake in anesthetized cynomolgus monkey brain thalamus after 235 mins postinjection; format: ADME, organism-based, Macaca fascicularis; design: unit not given here; conditions: in vivo
[62] = system: Midbrain; experiment: Drug uptake in anesthetized cynomolgus monkey brain midbrain after 3.5 mins postinjection; format: ADME, organism-based, Macaca fascicularis; design: unit not given here; conditions: in vivo
[63] = system: Midbrain; experiment: Drug uptake in anesthetized cynomolgus monkey brain midbrain after 22.5 mins postinjection; format: ADME, organism-based, Macaca fascicularis; design: unit not given here; conditions: in vivo, 0.375 h
[64] = system: Midbrain; experiment: Drug uptake in anesthetized cynomolgus monkey brain midbrain after 105 mins postinjection; format: ADME, organism-based, Macaca fascicularis; design: unit not given here; conditions: in vivo, 1.75 h
[65] = Ratio of drug uptake in midbrain to cerebellum in anesthetized cynomolgus monkey after 22.5 mins postinjection; format: ADME, organism-based, Macaca fascicularis; conditions: in vivo, 0.375 h
[66] = Ratio of drug uptake in midbrain to cerebellum in anesthetized cynomolgus monkey after 27.5 mins postinjection; format: ADME, organism-based, Macaca fascicularis; conditions: in vivo
[67] = Ratio of drug uptake in midbrain to cerebellum in anesthetized cynomolgus monkey after 125 mins postinjection; format: ADME, organism-based, Macaca fascicularis; conditions: in vivo

O=C(OCC[18F])C1C2CCC(CC1c1cccc(/C=C\Br)c1)N2 (configuration not stated)
Ratio [1]: 1.4 | Ratio [2]: 1.5 | Ratio [3]: 1.8 | Ratio [4]: 1.7 | Ratio [5]: 2 | Ratio [6]: 1.5 | Ratio [7]: 1.9 | Drug uptake [8]: 0.06 | Drug uptake [9]: 1.32 | Drug uptake [10]: 2.17 | Drug uptake [11]: 3.31 | Drug uptake [12]: 3.02 | Drug uptake [13]: 1.75 | Drug uptake [14]: 2.06 | Drug uptake [15]: 2.94 | Drug uptake [16]: 2.75 | Drug uptake [17]: 2.69 | Ratio [18]: 2.2 | Ratio [19]: 1.1 | Drug uptake [20]: 4.21 | Drug uptake [21]: 3.92 | Drug uptake [22]: 3.24 | Ratio [23]: 1.1 | Ratio [24]: 1.1 | Drug uptake [25]: 4.67 | Drug uptake [26]: 4.28 | Drug uptake [27]: 4.13 | Drug uptake [28]: 3.76 | Drug uptake [29]: 4.29 | Drug uptake [30]: 3.18 | Drug uptake [31]: 3.3 | Drug uptake [32]: 1.79 | Drug uptake [33]: 3.28 | Ratio [34]: 0.8 | Drug uptake [35]: 3.08 | Drug uptake [36]: 4.39 | Drug uptake [37]: 4.57 | Ratio [38]: 0.9 | Drug uptake [39]: 4.14 | Drug uptake [40]: 3.94 | Drug uptake [41]: 2.72 | Drug uptake [42]: 2.75 | Drug uptake [43]: 2.78 | Drug uptake [44]: 1.78 | Ratio [45]: 1.8 | Ratio [46]: 1.4 | Drug uptake [47]: 2.61 | Drug uptake [48]: 3.44 | Drug uptake [49]: 0.06 | Ratio [50]: 1.6 | Ratio [51]: 0.8 | Drug uptake [52]: 0.29 | Drug uptake [53]: 0.67 | Drug uptake [54]: 3.29 | Drug uptake [55]: 3.32 | Drug uptake [56]: 3.89 | Drug uptake [57]: 4.94 | Drug uptake [58]: 5.1 | Drug uptake [59]: 3.86 | Drug uptake [60]: 3.64 | Drug uptake [61]: 2.88 | Drug uptake [62]: 0.95 | Drug uptake [63]: 4.28 | Drug uptake [64]: 4.87 | Ratio [65]: 1.1 | Ratio [66]: 1.2 | Ratio [67]: 1.8

Reference: ChEMBL document CHEMBL1151757, “Synthesis, radiosynthesis, and biological evaluation of fluorine-18-labeled 2beta-carbo(fluoroalkoxy)-3beta-(3'-((Z)-2-haloethenyl)phenyl)nortropanes: candidate radioligands for in vivo imaging of the serotonin transporter with positron emission tomography” (J Med Chem, 2008)
